Experimental findings from patent publication US8951960B2, “Synergistic combination of DBNPA and polycyclic antibacterial peptide as biocide in bioethanol production” (Buckman Laboratories International, Inc., priority 2010, dated 2015) are described below.

One data set relates to Lactobacillus fermentans. Kind of data set: Kull synergism test in 25% strength MRS broth, quantities producing endpoints. In kind it is cell-based. The following applies: Nisin alone, 37° C., 24 hours. The method, then:
Lactobacilli MRS broth (25% strength) was prepared and dispensed in 10 ml amounts into test tubes and autoclaved for 20 minutes at 121° C. The biocides were added to the test tubes in the desired concentrations, and then 100 microliters of an overnight broth of Lactobacillus fermentans were added to the respective test tubes and incubated at 37° C. for 24 hours.
When the sum of QA/Qa and QB/Qb is greater than one, antagonism is indicated and when the sum is equal to one, additivity is indicated. When the sum of this value is less than one, synergism exists.

For data set [1], the system named is yeast (Saccharomyces cerevisiae). Kind of data set: Effect of biocide on fermentation yeast in corn fermentation. The data set is classed as cell-based. Here is the method: (§1) Experiments were conducted to evaluate the effectiveness of a nonoxidizing biocide as an antimicrobial agent for control of Lactobacillus infections in ethanol fermentation. The nonoxidizing biocide was BRONAM® 20 (20% 2,2-dibromo-3-nitrilopropionamide). The lactobacilli was L. plantarum. The yeast was Saccharomyces cereviseae. Corn mashes containing approximately 30% (w/w) dry solids were used.
A 0.2-g/ml suspension of yeast (Saccharomyces cerevisiae; Ethanol Red; Fermentis, Marcq-en-Baroeul, France) was prepared in a sterile 250-ml flask. This suspension was incubated and mixed for 20 minutes at 40° C. before inoculation into the fermentation flasks. […]
Each flask was mixed with an overhead agitator and samples were collected for the following measurements: yeast cell counts, final concentrations of substrates (glucose, DP2, DP3, and DP4+, where “DPx” represent glucose oligomers with “x” subunits), fermentation products (ethanol, glycerol, lactic acid, and acetic acid), total dry solids, and dissolved dry solids, and the density of the beer liquid phase. […] Samples were prepared for yeast cell counts by diluting at a factor of 100 in deionized water and staining with methylene blue to estimate viability then counted microscopically using a hemacytometer. The final concentrations of substrates and fermentation products were determined by HPLC. […]

Data set [2] in a line: Persistence of intact biocide under fermentation tank conditions. In kind it is physicochemical. The following applies: conditions in the fermentation tank; based on laboratory work. The method, then:
Under the conditions in the fermentation tank, DBNPA is expected to last intact only about 1-2 hours, based on laboratory work. The stillage, i.e., fermented unevaporated product (post “beer tank”) of distillation, is centrifuged, and dried (e.g., about 1 hour at about 250-300° F.), then the mixture is pumped over to a final tank where it is called the DDGS. DDGS is about ⅓ mass of the starting raw material for corn. The chemistry of DBNPA is not expected to endure and survive the centrifugation and heat of drying prior to entering distillers dried grains with solubles (DDGS) stage. In the corn-to-ethanol process, for example, DBNPA is expected to degrade to carbon dioxide and water vapor, and, as such, would have low environmental impact. […] The application of DBNPA avoids the use of antibiotics, which can remain stable throughout the process. The use of DBNPA makes the use of antibiotics unnecessary. The use of DBNPA is more economical since the cost of antibiotics (as the only treatment widely employed) can be relatively high and costly to the fermentation. […]

For another data set, the system named is Lactobacillus plantarum. Kind of data set: Corn mash ethanol fermentation infected with L. plantarum, treated with nonoxidizing biocide. In kind it is cell-based. The following applies: fermentation conditions typical of fuel-ethanol industry. The method, then:
as §1
For slurry preparation, the moisture of ground corn was determined gravimetrically using a moisture balance by measuring the mass loss that occurred upon drying. The amount of corn, deionized (DI) water, and enzyme needed to prepare 160 g of corn slurry at a total dry solids concentration of 30% (w/w) for each replicate was determined. […]
For fermentation, once the mash was cooled, the entire contents (approximately 160 g) of each Labomat beaker were transferred to a sterile 250-ml Erlenmeyer flask. The masses of the mash and flasks were recorded, and the mass of mash transferred to the fermentation flasks was calculated. […]
The L. plantarum culture was prepared for inoculation by growing throughout the day in 100-ml of MRS broth. […] The initial concentration of the bacteria was determined by plating serial dilutions of the culture on MRS agar containing cycloheximide and incubating at 32° C. for 2 days before counting colonies. […]

Turning to Nisin, the “Qa, concentration of Compound A acting alone which produced an endpoint” value in the data set with Lactobacillus fermentans (Example 2) and in the data set on Lactobacillus fermentans (Example 3) was 1.0 ppm throughout.

Turning to `N#CC(Br)(Br)C(N)=O` [2,2-dibromo-3-nitrilopropionamide], the “effect on yeast” value in data set [1] is “does not kill the yeast”. In addition, the “time the biocide lasts intact” value in data set [2] lay within 1 to 2 h. In addition, in the data set with Lactobacillus plantarum, the “effect on lactobacilli” value is given as “kills the bacteria (lactobacilli)”.
